tested on: mAb ADK8; experiment: Epitope mapping of mAb ADK8 against AAV peptides; type: binding, mice; conditions: not given
Text: Monoclonal antibody ADK8 was generated by immunizing mice with AAV8 capsids. It is directed against the assembled AAV8 capsid (Sonntag et al, 2011). […] Moreover, the binding of AAV8 to the nuclear membrane as well as the nuclear entry were abrogated following neutralization by ADK8. […] ADK8 also cross-reacts with capsid proteins from other AAV serotypes such as AAV1, AAV3, AAV7 (Mietzsch et al, 2014) and was therefore chosen as an example from which general conclusions about the present invention can be drawn.
As for the other antibodies (see examples above), several clusters were identified, delineating regions from which preferred peptides can be deduced. Most preferably, the peptides aligned below according to their binding strengths can be used for selective antibody depletion and detection as hereinabove.

Substance | peptide number according to binding strength
322 (GYSTPWGYFD) [compound 322] | 10
345 (AVGRSSFYCLEYF) [compound 345] | 22
318 (RDVYLQG) [compound 318] | 20
315 (DVYLQGP) [compound 315] | 05
313 (VYLQGPI) [compound 313] | 02
347 (QAVGRSSFYCLEY) [compound 347] | 33
351 (IDQYLYY) [compound 351] | 36
349 (DQYLYYL) [compound 349] | 19
317 (LQGPIWA) [compound 317] | 12
350 (PLIDQYLYYL) [compound 350] | 29
329 (FGYSTPWGYFDFN) [compound 329] | 34
339 (YVLGSAHQGC) [compound 339] | 37
321 (FGYSTPWGYF) [compound 321] | 09
348 (NGSQAVGRSSFYC) [compound 348] | 35
325 (TPWGYFDFNRFHC) [compound 325] | 18
328 (YFGYSTPWGY) [compound 328] | 28
342 (VLGSAHQGCL) [compound 342] | 45
340 (CLPPFPA) [compound 340] | 38
336 (GCLPPFP) [compound 336] | 13
323 (YSTPWGYFDF) [compound 323] | 11
330 (NWLPGPC) [compound 330] | 04
341 (SAHQGCLPPF) [compound 341] | 39
331 (WLPGPCY) [compound 331] | 15
346 (AVGRSSFYCL) [compound 346] | 24
338 (LPYVLGSAHQGCL) [compound 338] | 32
343 (PYVLGSAHQGCLP) [compound 343] | 46
344 (GRSSFYC) [compound 344] | 14
337 (VLGSAHQGCLPPF) [compound 337] | 27

tested on: IgG from human donors (anti-AAV antibodies); experiment: Screen for anti-AAV antibodies in human sera based on cyclic 14-amino-acid AAV peptides on microarrays (Table 2); type: binding; set-up: key: X: the deduplicated aggregate of the respective top 50 peptide hits for each donor was compiled and designated as group I; conditions: human donor IgG; circularized AAV peptides; top 50 peptide hits for each donor
Method: More than 1200 cyclic peptides derived from the sequences of human and rhesus monkey AAV sequences and artificial AAV sequences according to Table 2 and with a sequence length of 14 amino-acids each were synthesized.
Samples obtained from human donors were screened for antibodies against these AAV-derived peptides immobilized on microarrays. To this end, IgG was prepared from blood obtained from the human donors by protein G purification. Each IgG sample was incubated with the peptide microarrays and Ig binding signals were detected by fluorescence. All antibody binding signals to the peptides on the arrays were background subtracted and ranked for each sample and a deduplicated aggregate of the respective top 250 peptide hits for each donor with the corresponding protein sequence of origin (as obtained from UniProt or other sources) was compiled (designated as group II). Further, the deduplicated aggregate of the respective top 50 peptide hits for each donor was compiled and designated as group I.
Altogether, group I contains 47 distinct peptide hits (assigned to the corresponding AAV vectors in Table 2) and group II yielded 172 distinct peptide hits. Evidently, group I is a subset of group II.

Substance | group I
1892 (DSQWLGDRVITTST; REGION 1..14: note = peptide derived from viral capsid protein) [compound 1892] | X
1893 (DTNGVYSEPRPIGT; REGION 1..14: note = peptide derived from viral capsid protein) [compound 1893] | X
1934 (LQQQNTAPQIGTVN; REGION 1..14: note = peptide derived from viral capsid protein) [compound 1934] | X
1928 (DKAYDQQLQAGDNP; REGION 1..14: note = peptide derived from viral capsid protein) [compound 1928] | X
1935 (EEEIKTTNPVATEE; REGION 1..14: note = peptide derived from viral capsid protein) [compound 1935] | X
1919 (GKKRPVDQSPQEPD; REGION 1..14: note = peptide derived from viral capsid protein) [compound 1919] | X
1910 (FNIQVKEVTTNDGV; REGION 1..14: note = peptide derived from viral capsid protein) [compound 1910] | X
1913 (QLKAGDNPYLRYNH; REGION 1..14: note = peptide derived from viral capsid protein) [compound 1913] | X
